The record followed here is the NIST ThermoML archive (doi:10.1016/j.jct.2003.09.010).

Numbers after ± are expanded uncertainties.

The nature of the series: mn = molality of the nth substance listed, in mol/kg. The following applies: 298.15 K, 101 kPa, Liquid.

One may read the mass density as mass per unit of volume.

For the molecule `CCCCCCCCCCCCCCCC[N+](C)(C)C.[Br-]` [N,N,N-trimethyl-1-hexadecanaminium bromide] + O, under “m1 = 1”, the mass density came out at 1004.43 ± 0.46 kg/m3.
`CCCCCCCCCCCCOS(=O)(=O)[O-].[Na+]` [sodium dodecyl sulfate] + O: the mass density is 999.133 ± 0.27 kg/m3 [middle of 5 runs] (m1 = 0.05), 1014.57 ± 0.3 kg/m3 [middle of 5 runs] (m1 = 0.5) and 1027.43 ± 0.33 kg/m3 [middle of 7 runs] (m1 = 1).
